For one molecule, Ki results are on record in BindingDB's records for doi:10.1021/np4008798 (The Chinese University of Hong Kong, 2014).

The assay in a line: Inhibition of tyrosinase in mouse Melan-a cells assessed as decrease in L-DOPA Vmax at 60 uM by Lineweaver-Burk plot.

As to `OC[C@H]1O[C@@H](Oc2c(O)cc(O)cc2/C=C/c2ccc(O)cc2)[C@H](O)[C@@H](O)[C@@H]1O`, the Ki was 3.1 mM.

As a reminder, the Ki is the dissociation constant of the complex between target and ligand, obtained from inhibition or displacement.
